Values quoted from earlier work as cited in patent US20110305747A1, “COMBINATION OF DAPSONE WITH OTHER ANTI-ACNE AGENTS” (ALLERGAN, INC., priority 2009, published 2011).
Values after ≈ are worked out from the molar mass of the structure shown.

Tests used:
[1] = test system: P. acnes
[2] = test system: spontaneous comedones; details: Rhino mouse containing a high density of spontaneous comedones (Allec et al, 1997)
[3] = test system: CRABPII (cellular retinol-binding protein II)

| SMILES | MIC90 against P. acnes [1] [µg/mL] | mean Cmax of adapalene (0.3% adapalene gel on face, chest and back, approx. 2 mg/cm2, Day 10 of treatment, 15 of 16 patients quantifiable (LOQ=0.1 ng/mL)) [ng/mL] | Mean AUC0-24hr (0.3% adapalene gel, approx. 2 mg/cm2, Day 10, 15 of the 16 patients) [ng·h/mL] | Terminal apparent half-life, mean (0.3% adapalene gel, 15 of 16 patients) [h] | Detection in plasma 72 hours after the last application (0.3% adapalene gel, all but one subject) | Comedolytic activity [2] | Binding to CRABPII [3] |
| --- | --- | --- | --- | --- | --- | --- | --- |
| Nc1ccc(S(=O)(=O)c2ccc(N)cc2)cc1 [dapsone] | 8 (≈ 32.2 µM) |  |  |  |  |  |  |
| COc1ccc(-c2ccc3cc(C(=O)O)ccc3c2)cc1C12CC3CC(CC(C3)C1)C2 [adapalene] |  | 0.553 ± 0.466 | 8.37 ± 8.46 | 17.2 ± 10.2 | not detected | comedolytic activity | does not bind |
